In patent publication US20100160178A1, “SYSTEM AND METHOD FOR PRESENTING DNA BINDING SPECIFICITIES USING SPECIFICITY LANDSCAPES” (priority 2008, published 2010):
Blank lines part the entries; values can stand above or below the molecule they belong to.

Columns and labels:
[1] = tested on: every possible 9-mer DNA sequence; test: CSI array and specificity landscape of Nkx-2.5; assay type: binding
Text: (§1) CSI arrays can display the entire sequence space for about 2-10 variable base pair positions. Additionally, CSI arrays can display the entire sequence space for more than 10 base pair positions. Data relating to the binding affinities between the binding molecule and a sample set of DNA sequences (“N-mers”) has been obtained from the CSI DNA microarrays, in which every N-mer sequence is correlated to a fluorescent intensity value. The fluorescent intensity value indicates the amount of interaction between a specific N-mer and the DNA-binding molecule of interest and is proportional to binding affinity. The affinity value is the form of an equilibrium association constant (KA), or a KD value may be converted to KA by the relationship of KA=1/KD. Any biochemical/biophysical technique, other than DNA microarrays, can be used to obtain binding affinities, but these affinities must be related to a specific DNA sequence to be appropriate input for the specificity landscape.
The cognate site identifier array is a high through put approach for providing a comprehensive profile of the binding properties of DNA-binding molecules. CSI arrays display every permutation of a duplex DNA sequence on a microfabricated array. […]

[2] = tested on: DNA sequences; test: Specificity landscapes of DNA-binding proteins (FIGS. 8-10); conditions: circular specificity landscape
[3] = tested on: duplex DNA microarray that displays the entire sequence space; test: CSI (cognate site identifier) array and specificity landscape of the polyamide; assay type: binding
Text: as §1
This particular approach is an example of the data input to the specificity landscape algorithm. In particular, the present approach provides a comprehensive and unbiased understanding of the sequence-specificity of DNA binding molecules. Structural DNA variants are all examined to explore the importance of DNA structure on cognate site recognition by these ligands (data not shown). This particular example examines sequences and structural preferences of a small molecule polyamide (ImImPy*Py-γ-PyPyPyPy-β-Dp) designed to recognize the sequence 5′-W-W-G-G-W-W-W-3′ (W=A or T). […] The more distorted, or non-duplex, the DNA becomes the less affinity the polyamide has for that particular DNA sequence. Based upon previous knowledge of this polyamide, the specificity landscape unexpectedly uncovered unique insight into the polyamide relating to sequence and structural specificity of the polyamide-DNA interactions. […] The relative affinity of a particular sequence is represented by the height of the peak. The landscape provides a valuable tool to researchers looking for both the consensus sequences as well as those with the highest affinity.
Each sequence on the array is given a z-score which indicates the probability of a sequence being preferentially bound by the polyamide. As such, each sequence on the array has an intensity denoting the affinity of the polyamide to the sequence. The z-score is calculated using Equation Set 1. The sequences in the highest z-score bins, or with the highest intensities, fit the 5′-W-W-G-G-W-W-W-3′
Z=|intensity−average|/standard deviation Equation Set 1
The cognate site identifier array is a high through put approach for providing a comprehensive profile of the binding properties of DNA-binding molecules. CSI arrays display every permutation of a duplex DNA sequence on a microfabricated array. The CSI is a standard type array where each square (microarray feature) is assigned a specific nucleotide sequence, which includes a linker and a palindromic sequence with a 3-5 nucleotide turn in the middle. This palindromic sequence forms a double-stranded DNA region comprised of, for example, 8 base pairs that represents a specific permutation of an 8mer sequence. The central region of the sequence is buried, by example all or a subset of, 8 base pairs for a given 8-mer sequence. Approximately one million of the same sequences are provided for each square, each being one of the possible 8-mer sequences. A fluorescently labeled compound or antibody is included. […]

DNA binding motif from specificity landscape [1]: TNAAGTG and NTAAGTG | binding of sequences identical to motif TTAAGTG ([1]; relative intensities, all possible 9-mers): bind well
Molecule: Nkx-2.5: Nk2 transcription factor related, locus 5; earliest heart lineage marker; mouse DNA-binding protein

DNA sequence bound [2]: 5′-WGATAA-3′
Molecule: gata4: mouse protein gata4

binding to non-B-form DNA bearing high affinity sequences ([3]; relative to the duplex): appreciable binding
Molecule: ImImPy*Py-γ-PyPyPyPy-β-Dp [polyamide]
base preference at position 5 [3]: prefers a T at position 5 | DNA conformer preference ([3]; B-form duplex vs structural DNA variants): prefers double-stranded DNA | affinity across permutations of the consensus motif WWGGWWW ([3]; innermost ring (Ring 1) of landscape): does not bind all the permutations of the consensus motif (WWGGWWW) with equal affinity | positions of the motif where mutations are tolerated ([3]; one mismatch ring): tolerates mutations at positions 1 and 3

DNA sequence bound [2]: 5′-ARGGG-3′
B1: msn2: yeast protein msn2 (protein, UniProt P33748 1-704, looked up)
Zinc finger protein MSN2: MTVDHDFNSEDILFPIESMSSIQYVENNNPNNINNDVIPYSLDIKNTVLDSADLNDIQNQETSLNLGLPPLSFDSPLPVTETIPSTTDNSLHLKADSNKNRDARTIENDSEIKSTNNASGSGANQYTTLTSPYPMNDILYNMNNPLQSPSPSSVPQNPTINPPINTASNETNLSPQTSNGNETLISPRAQQHTSIKDNRLSLPNGANSNLFIDTNPNNLNEKLRNQLNSDTNSYSNSISNSNSNSTGNLNSSYFNSLNIDSMLDDYVSSDLLLNDDDDDTNLSRRRFSDVITNQFPSMTNSRNSISHSLDLWNHPKINPSNRNTNLNITTNSTSSSNASPNTTTMNANADSNIAGNPKNNDATIDNELTQILNEYNMNFNDNLGTSTSGKNKSACPSSFDANAMTKINPSQQLQQQLNRVQHKQLTSSHNNSSTNMKSFNSDLYSRRQRASLPIIDDSLSYDLVNKQDEDPKNDMLPNSNLSSSQQFIKPSMILSDNASVIAKVATTGLSNDMPFLTEEGEQNANSTPNFDLSITQMNMAPLSPASSSSTSLATNHFYHHFPQQGHHTMNSKIGSSLRRRKSAVPLMGTVPLTNQQNNISSSSVNSTGNGAGVTKERRPSYRRKSMTPSRRSSVVIESTKELEEKPFHCHICPKSFKRSEHLKRHVRSVHSNERPFACHICDKKFSRSDNLSQHIKTHKKHGDI
